According to US8563599B2, “Methods for synthesizing glycinols, glyceollins I and II, compositions of selected intermediates, and therapeutic uses thereof” (The United States of America, represented by the Secretary …, priority 2008, dated 2013):

Tests used:
[1] = system: estrogen receptor (ERE-luciferase) in MCF7 ER-positive cells; assay: ERE-Luciferase assay, estrogenic and antiestrogenic activity; assay type: cell-based, human
Experimental: Cell Culture Studies (MCF7 ER-Positive Cells)
Human cancer cell lines derived from breast (MCF7, ER-positive cells) were cultured in 75 ml culture flasks in DMEM (Invitrogen, Co.) supplemented with 10% FBS (Life Technologies, Inc., Gaithersburg, Md.), basic minimum MEM essential (50×, Invitrogen Co.) and MEM non-essential (100×, Invitrogen, Co.) amino acids, sodium pyruvate (100× Invitrogen Co.), antimicotic-antibiotic (10,000 U/mL penicillin G sodium; 10,000 μg/mL streptomycin sulphate; 25 μg/mL amphotericin B as Fungizone®), and human recombinant insulin (4 mg/mL. Invitrogen Co.). The culture flasks were maintained in a tissue culture incubator in a humidified atmosphere of 5% CO2 and 95% air at 37° C. For estrogen studies, cells were washed with PBS 3 times and grown in phenol red-free DMEM supplemented with 5% dextran-coated charcoal-treated FBS (5% CS-FBS) for 72 h before plating for each particular experiment.
Results were then assessed by using an ERE-luciferase assay. The cells were plated in 24 well plates at 5×10^5 cells/well in the same media and allowed to attach overnight. After 18 hours, cells were transfected for 5 h in serum supplemented-free DMEM with […] pGL2-ERE2X-TK-luciferase plasmid, using 6 μl of effectine (Qiagen)/μg of DNA. After 5 h the transfection medium was removed and replaced with phenol red-free DMEM supplemented with 5% CS-FBS containing vehicle, 17β-estradiol, GLY I, or 17β-estradiol plus GLY I, and incubated at 37° C. After 18 h the medium was removed, and 100 μl of lysis buffer was added per well and then incubated for 15 min at room temperature. Cell debris was pelleted by centrifugation at 15000×g for 5 min. cell extracts were normalized for protein concentration using reagent according to the protocol supplied by the manufacturer (Bio-Rad Laboratories, Inc., Hercules, Calif.). Luciferase activity for the cell extracts was determined using Luciferase substrate (Promega Corp.) in an Autoluminat Plus luminometer.

[2] = pH stability study by HPLC; assay type: physicochemical
Text: This instability could derive by formation of a quinone-methide from the now unprotected ‘Southern’ ring's phenolic hydroxyl-group. Thus, mildly acidic reagents that might be used for de-protection were explored. In the end, NEt3.3 HF (see, e.g., L. D. Julian, J. S. Newcom, W. R. Roush, J. Am. Chem. Soc. 2005, 127, 6186-6187, which is hereby incorporated by reference in its entirety), which provides a pH in the range of 4-5 when run on the 0.1 mmole scale in anhydrous acetonitrile, was most successfully utilized for this transformation. Even with this approach, however, it is important to adjust the pH of the post-reaction medium (as readily followed by TLC) to pH 7-8 by addition of triethylamine so as to avoid decomposition during subsequent workup. Final compounds are obtained in the range of ca. 65-70% yields. Assignment of stereochemistry for these final materials can be accomplished with NMR and CD. In addition, at this point it is convenient to take advantage of chiral HPLC wherein authentic materials from natural sources can be used as standards along with the synthesized racemic materials.

[3] = target: T1, hrER-α (alpha estrogen receptor) (Homo sapiens, UniProt P03372); assay: ER-α competition binding assay (fluorescence anisotropy, ES2 displacement); details: ERα/ES2 complex, 2 h room temperature, FIG. 9; read-out: IC50 for 50% inhibition of a standard's binding with the alpha estrogen receptor (ER-α)
T1 sequence (P03372 1-595): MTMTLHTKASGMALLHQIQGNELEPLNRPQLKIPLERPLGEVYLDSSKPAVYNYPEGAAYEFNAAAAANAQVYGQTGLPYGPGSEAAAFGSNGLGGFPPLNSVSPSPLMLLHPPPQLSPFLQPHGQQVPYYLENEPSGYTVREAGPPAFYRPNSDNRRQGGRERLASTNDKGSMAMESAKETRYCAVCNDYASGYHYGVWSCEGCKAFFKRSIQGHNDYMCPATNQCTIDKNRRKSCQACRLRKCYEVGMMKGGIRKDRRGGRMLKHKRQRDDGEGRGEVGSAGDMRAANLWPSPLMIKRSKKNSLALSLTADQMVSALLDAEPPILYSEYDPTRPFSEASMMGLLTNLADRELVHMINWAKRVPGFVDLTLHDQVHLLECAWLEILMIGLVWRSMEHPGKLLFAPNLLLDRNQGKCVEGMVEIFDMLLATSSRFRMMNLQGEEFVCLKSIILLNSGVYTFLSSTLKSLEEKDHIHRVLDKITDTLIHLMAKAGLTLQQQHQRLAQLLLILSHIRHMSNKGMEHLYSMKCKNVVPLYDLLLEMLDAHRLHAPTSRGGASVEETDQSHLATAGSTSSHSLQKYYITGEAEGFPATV
Experimental: This example illustrates how the biological data pertaining to interaction of the compounds with the alpha-estrogen receptors was obtained.
A 200 μM working stock solution of GLY I was prepared from an original 10 mM DMSO stock solution. The working stock solution was serially diluted in triplicate in screening buffer to the desired concentrations. hrER-α and ES2 were added to a final concentration of 2 nM and 3 nM, respectively. Negative (ER+ES2, equivalent to 0% inhibition) and positive (free ES2, equivalent to 100% inhibition) controls in the absence of competitor were measured in duplicate. After 2 h at room temperature, the anisotropy values in each tube were measured using the Beacon 2000 system CO. The anisotropy values were converted to percent inhibition using the following formula: I%=(A0−A)/(A0−A100)×100, where I% is the percent inhibition, A0 is 0% inhibition, A100 is 100% inhibition, and A represents the observed value. Polarization values were converted to percent inhibition to make the data more intuitive to the reader and to normalize the day-to-day differences in the starting 0% inhibition polarization values. The percent inhibition versus competitor concentration curves were analyzed by nonlinear least-squares curve fitting and yielded an IC50 value (the concentration of competitor needed to displace half of the bound ligand). To compare binding affinities of the test compounds to those reported in the literature, IC50 values were converted to relative binding affinities (RBA) using E2 as a standard. The E2 RBA was set equal to 100 […].

stability of ring system (HPLC) ([2]; acidic pH as low as 4): reasonable stability | stability of ring system (HPLC) ([2]; basic pH above 8): not stable | IC50 [3]: 1400 nM
SMILES: CC1(C)C=Cc2c(ccc3c2OCC2(O)c4ccc(O)cc4OC32)O1 (racemic) [racemic (±)-GLY I, (+) Glyceollin I (Racemic Glyceollin I)]
anti-estrogenic activity (ERE-Luciferase) ([1]; at 10 μM, E2 at 100 pM): strong anti-estrogenic activity | estrogenic activity (ERE-Luciferase) ([1]; concentration not given): no significant estrogenic activity
